Results from publication PMC4951196, “The Lamin B receptor is essential for cholesterol synthesis and perturbed by disease-causing mutations” (eLife, 2016).

Molecular target: T1, Lamin B receptor (LBR) (Homo sapiens, UniProt Q14739)
T1 construct: Flag-tagged LBR, WT, expressed in Expi293 cells and purified
T1 sequence (Q14739 1-615): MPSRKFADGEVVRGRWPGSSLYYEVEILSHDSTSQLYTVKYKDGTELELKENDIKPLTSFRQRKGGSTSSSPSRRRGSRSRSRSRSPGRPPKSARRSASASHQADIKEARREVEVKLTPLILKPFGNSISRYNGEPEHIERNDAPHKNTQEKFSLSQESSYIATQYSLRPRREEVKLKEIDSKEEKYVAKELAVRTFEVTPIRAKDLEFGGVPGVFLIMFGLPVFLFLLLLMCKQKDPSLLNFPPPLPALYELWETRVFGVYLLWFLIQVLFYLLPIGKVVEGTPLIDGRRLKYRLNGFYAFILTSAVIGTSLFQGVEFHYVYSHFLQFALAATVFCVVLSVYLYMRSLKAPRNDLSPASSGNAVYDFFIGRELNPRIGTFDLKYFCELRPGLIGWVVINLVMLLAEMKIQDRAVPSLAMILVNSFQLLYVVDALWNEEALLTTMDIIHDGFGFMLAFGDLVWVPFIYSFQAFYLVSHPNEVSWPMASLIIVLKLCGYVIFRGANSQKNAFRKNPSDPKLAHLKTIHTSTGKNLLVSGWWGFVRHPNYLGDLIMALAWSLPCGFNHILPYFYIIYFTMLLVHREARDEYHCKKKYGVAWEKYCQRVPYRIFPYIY
Assay: intrinsic tryptophan fluorescence titration of purified LBR
Type: binding

## NC(=O)C1=CN([C@@H]2O[C@H](COP(=O)(O)OP(=O)(O)OC[C@H]3O[C@@H](n4cnc5c(N)ncnc54)[C@H](OP(=O)(O)O)[C@@H]3O)[C@@H](O)[C@H]2O)C=CC1 [NADPH]
  Kd: 24.2 µM
